From patent publication US11999727B2 (Tango Therapeutics, Inc., priority 2020, dated 2024)
Where two headings read alike, the source gives them in different places.

What was measured:
Assay type in all cases: cell-based
[1] = system: HAP1 MTAP-intact cell line; assay: SDMA in-cell western assay, HAP1 MTAP-intact; conditions: Homo sapiens
Source text: (§1) Table 1 also indicates IC50 values in an MTAP-isogenic cell line pair for exemplary compounds in an SDMA in-cell western assay (columns 7-8). HAP1 MTAP-intact is a cell line in which endogenous levels of MTAP are expressed, and HAP1 MTAP-deleted is an MTAP-null cell line.

[2] = system: HAP1 MTAP-deleted cell line; assay: SDMA in-cell western assay, HAP1 MTAP-deleted; conditions: for IC50: Homo sapiens; for MTAP intact/deleted ratio: IC50 ratio HAP1 MTAP-intact / HAP1 MTAP-deleted, SDMA in-cell western
Source text: as §1

[3] = system: HAP1 MTAP-deleted cell line; assay: Viability assay, MTAP-deleted cell line; conditions: Homo sapiens
Source text: Table 1 additionally indicates IC50 values in a viability assay for the MTAP-deleted cell line (column 10), indicating the effect of treatment with compound on cell survival.

[4] = HAP1, SDMA in-cell western, HAP1 MTAP-intact, read-out: MTAP HAP1 intact IC50
[5] = HAP1, SDMA in-cell western, HAP1 MTAP-deleted, read-out: HAP 1 MTAP deleted IC50
[6] = HAP1, viability IC50, MTAP-deleted cell line, read-out: HAP1 MTAP deleted viability
[7] = HAP1, read-out: MTAP HAP1 intact IC50
[8] = HAP1, read-out: HAP1 MTAP deleted IC50
[9] = HAP1, read-out: HAP1 MTAP deleted viability

IC50 [1, 7]	IC50 [2, 8]	SMILES	IC50 [3, 9]	further results
< 100 nM	< 100 nM	COc1ncc(NC(=O)C(=O)N2C[C@@H](C)CC[C@@H]2c2ccc3sc(C4CCN(C)CC4)nc3c2)cc1C(N)=O (single isomer, unassigned) [Compound 1126]	< 1000 nM	
> 1000 nM	100 to 1000 nM	C[C@@H]1CC[C@@H](c2ccc3sc(C4CCN(C)CC4)nc3c2)N(C(=O)C(=O)Nc2cnc(N)c(C3CC3)c2)C1 (single isomer, unassigned) [Compound 1201]	< 1000 nM	
< 100 nM	< 100 nM	C[C@H]1CC[C@H](c2ccc3sc(C4CCN(C)CC4)nc3c2)N(C(=O)C(=O)Nc2cnc(N)c(C3CC3)c2)C1 (single isomer, unassigned) [Compound 1222]	< 1000 nM	
100 to 1000 nM	< 100 nM	Cc1cc(NC(=O)C(=O)N2C[C@H](C)CC[C@H]2c2ccc3sc(C4CCN(C)CC4)nc3c2)cnc1N (single isomer, unassigned) [Compound 1293]	< 1000 nM	
< 100 nM	< 100 nM	Cc1cc(NC(=O)C(=O)N2C[C@@H](C)CC[C@@H]2c2ccc3sc(C4CCN(C)CC4)nc3c2)cnc1N (single isomer, unassigned) [Compound 1314]	< 1000 nM	
< 100 nM	< 100 nM	C[C@H]1CC[C@H](c2ccc3sc(C4CCN(C)CC4)nc3c2)N(C(=O)C(=O)Nc2cnc(N)c(C3COC3)c2)C1 (single isomer, unassigned) [Compound 1334]	< 1000 nM	

The next lines start with the compound.

SMILES	IC50 [1, 7]	IC50 [2, 8]	IC50 [3, 9]	further results
Cc1cc([C@@H]2CC[C@@H](C)CN2C(=O)C(=O)Nc2cncc(C(N)=O)c2)cc2cn[nH]c12 (single isomer, unassigned) [Compound 611]				IC50 [1, 4]: > 1000 nM; IC50 [2, 5]: > 1000 nM; MTAP intact/deleted ratio [2]: C (an IC50 ratio of less than 3 fold); IC50 [3, 6]: > 10000 nM
Cc1cc(NC(=O)C(=O)N2C[C@@H](C)CC[C@@H]2c2ccc3c(c2)CC(=O)N3)cnc1N (single isomer, unassigned) [Compound 678]	< 100 nM	< 100 nM	< 1000 nM	
COc1ncc(NC(=O)C(=O)N2C[C@H](C)CC[C@H]2c2ccc3sc(C)nc3c2)cc1C(N)=O (single isomer, unassigned) [Compound 808]				IC50 [1, 4]: > 1000 nM; IC50 ([2]; HAP1, SDMA in-cell western, HAP1 MTAP-deleted, read-out: HAP1 MTAP deleted IC50): > 1000 nM; IC50 ([3]; HAP1, viability assay, HAP1 MTAP-deleted, read-out: HAP1 MTAP deleted viability): > 10000 nM
C[C@H]1CC[C@H](c2ccc3cnccc3c2)N(C(=O)C(=O)Nc2cncc(C(N)=O)c2)C1 (single isomer, unassigned) [Compound 885]	> 1000 nM	> 1000 nM	> 10000 nM	
C[C@@H]1CC[C@@H](c2ccc3cnccc3c2)N(C(=O)C(=O)Nc2cncc(C(N)=O)c2)C1 (single isomer, unassigned) [Compound 892]	> 1000 nM	< 100 nM	< 1000 nM	
Cc1cc(NC(=O)C(=O)N2C[C@H](C)CC[C@H]2c2ccc3cnccc3c2)cnc1N (single isomer, unassigned) [Compound 1000]	100 to 1000 nM	< 100 nM	< 1000 nM	
Cc1cc(NC(=O)C(=O)N2C[C@@H](C)CC[C@@H]2c2ccc3cnccc3c2)cnc1N (single isomer, unassigned) [Compound 1002]	> 1000 nM	100 to 1000 nM	> 10000 nM	
Cc1cc(NC(=O)C(=O)N2C[C@H](C)CC[C@H]2c2ccc3sc(CN(C)C)nc3c2)cnc1N (single isomer, unassigned) [Compound 1122]	< 100 nM	< 100 nM	< 1000 nM	
Cc1cc(NC(=O)C(=O)N2C[C@@H](C)CC[C@@H]2c2ccc3sc(CCN(C)C)nc3c2)cnc1N (single isomer, unassigned) [Compound 1279]	< 100 nM	< 100 nM	< 1000 nM	
Cc1cc(NC(=O)C(=O)N2C[C@H](C)CC[C@H]2c2ccc3cn[nH]c3c2)cnc1N (stereo in doubt) [Compound 613, N-(6-amino-5-methyl-3-pyridyl)-2-[(2S,5R)-2-(1H-indazol-6-yl)-5-methyl-1-piperidyl]-2-oxo-acetamide]				IC50 [1, 4]: > 1000 nM; IC50 [2, 5]: > 1000 nM; MTAP intact/deleted ratio [2]: C (an IC50 ratio of less than 3 fold); IC50 [3, 6]: > 10000 nM
